Laboratory results published in patent publication US4604236A, “Calcitonin analogs” (priority 1985, dated 1986).

Tests used:
[1] = test system: serum calcium concentration; experiment: Biological assay of calcitonin analogs in vivo: reduction of serum calcium concentration versus salmon calcitonin standard, 2×2 parallel line assay; parameters: species or system Rats; settings: standard used in the assay, independently determined
Method: The biological potency of des-13-serine-salmon calcitonin was determined by comparing the reduction of serum calcium concentration which followed administration by graded doses of des-Ser^13 -SCT and synthetic salmon calcitonin standard. Rats were divided into four groups of seven animals, and each group was assigned at random to a dose of standard or test solution. Low and high doses were chosen from the linear portion of the dose-response curve. For the salmon calcitonin standard, the values were 0.7 and 2.1 ng. peptide/100 g. body weight (BW). This dose approximates 3 and 9 MU/100 g. BW. Peptides were given by subcutaneous injection (0.2 ml/100 g. BW) and blood was withdrawn 1 hour later for serum calcium determination. Sera are processed and analyzed within two hours of collection. […]. Results were analyzed by a 2×2 parallel line assay [Gaddum, J. H., J. Pharm. Pharmacol., 6, 345 (1953)]. The standard salmon calcitonin used was independently determined to contain greater than 4,000 IU/mg. des-Ser^13 -SCT assayed at 4650 IU/mg.

[2] = literature values; cited from earlier work

Row | Molecule | potency content of the standard salmon calcitonin [1] | hypocalcemic potency [2]
1 | CC(C)C[C@H](NC(=O)[C@H](CCCCN)NC(=O)CNC(=O)[C@H](CC(C)C)NC(=O)[C@@H](NC(=O)[C@@H]1CSSC[C@H](N)C(=O)N[C@@H](CO)C(=O)N[C@@H](CC(N)=O)C(=O)N[C@@H](CC(C)C)C(=O)N[C@@H](CO)C(=O)N[C@@H]([C@@H](C)O)C(=O)N1)C(C)C)C(=O)N[C@@H](CO)C(=O)N[C@@H](CCC(N)=O)C(=O)N[C@@H](CCC(=O)O)C(=O)N[C@@H](CC(C)C)C(=O)N[C@@H](Cc1c[nH]cn1)C(=O)N[C@@H](CCCCN)C(=O)N[C@@H](CC(C)C)C(=O)N[C@@H](CCC(N)=O)C(=O)N[C@H](C(=O)N[C@@H](Cc1ccc(O)cc1)C(=O)N1CCC[C@H]1C(=O)N[C@@H](CCCNC(=N)N)C(=O)N[C@H](C(=O)N[C@@H](CC(N)=O)C(=O)N[C@H](C(=O)NCC(=O)N[C@@H](CO)C(=O)NCC(=O)N[C@H](C(=O)N1CCC[C@H]1C(N)=O)[C@@H](C)O)[C@@H](C)O)[C@@H](C)O)[C@@H](C)O [standard salmon calcitonin, salmon calcitonin] | greater than 4,000 IU/mg | –
2 | (1,7-α-L-aminosuberic acid)eel calcitonin | – | about 3400 IU/mg.
3 | eel calcitonin [synthetic eel calcitonin] | – | around 4300 IU/mg.
